Experimental data published in PubChem BioAssay AID248 (DTP/NCI, 2004).
Several values for one entry are separate records, joined by “and”; a condition that tells them apart may be missing. Identical values can stand only once. Toxic doses and inconclusive results are not listed. Cut-off read from the data, not from the text of the source: active = T/C of 150% or more; inactive = T/C below 125%.

Test system: L1210 leukemia ip in BDF1 mice, survival T/C
Experiment: NCI In Vivo Anticancer Drug Screen. Data for tumor model L1210 Leukemia (intraperitoneal) in B6D2F1 (BDF1) mice
Settings: endpoint: mean survival time, higher = longer survival
Summary of the method: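 Tumor cells were implanted, animals were treated, and survival was followed. The result divides the treated measurement by the vehicle-control measurement.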

[1] = dose: 25.0 mg/kg/injection, schedule: Q01DX009 (ip), vehicle: saline
[2] = dose: 50.0 mg/kg/injection, schedule: Q01DX009 (ip), vehicle: saline
[3] = dose: 50.0 mg/kg/injection, schedule: Q04DX003 (ip), vehicle: saline
[4] = dose: 100.0 mg/kg/injection, schedule: Q01DX009 (ip), vehicle: saline
[5] = dose: 100.0 mg/kg/injection, schedule: Q04DX003 (ip), vehicle: saline
[6] = dose: 100.0 mg/kg/injection, schedule: Q01DX009 (ip), vehicle: saline with Tween-80
[7] = dose: 200.0 mg/kg/injection, schedule: Q01DX009 (ip), vehicle: saline with Tween-80
[8] = dose: 200.0 mg/kg/injection, schedule: Q04DX003 (ip), vehicle: saline
[9] = dose: 400.0 mg/kg/injection, schedule: Q04DX003 (ip), vehicle: saline
[10] = dose: 100.0 mg/kg/injection, schedule: Q04DX002 (ip), vehicle: saline
[11] = dose: 200.0 mg/kg/injection, schedule: Q04DX002 (ip), vehicle: saline
[12] = dose: 400.0 mg/kg/injection, schedule: Q04DX002 (ip), vehicle: saline
[13] = dose: 100.0 mg/kg/injection, schedule: Q01DX001 (ip), vehicle: saline
[14] = dose: 200.0 mg/kg/injection, schedule: Q01DX001 (ip), vehicle: saline
[15] = dose: 400.0 mg/kg/injection, schedule: Q01DX001 (ip), vehicle: saline
[16] = dose: 100.0 mg/kg/injection, schedule: Q01DX009 (ip), vehicle: Klucel (hydroxypropylcellulose) (HPC)
[17] = dose: 100.0 mg/kg/injection, schedule: Q04DX003 (ip), vehicle: Klucel (hydroxypropylcellulose) (HPC)
[18] = dose: 200.0 mg/kg/injection, schedule: Q01DX009 (ip), vehicle: Klucel (hydroxypropylcellulose) (HPC)
[19] = dose: 200.0 mg/kg/injection, schedule: Q04DX003 (ip), vehicle: Klucel (hydroxypropylcellulose) (HPC)
[20] = dose: 400.0 mg/kg/injection, schedule: Q01DX009 (ip), vehicle: Klucel (hydroxypropylcellulose) (HPC)
[21] = dose: 400.0 mg/kg/injection, schedule: Q04DX003 (ip), vehicle: Klucel (hydroxypropylcellulose) (HPC)

Measured: T/C

CC[C@@]1(O)C[C@H](OC2CC(N(C)C)C(OC3CC(O)C(OC4CCC(=O)C(C)O4)C(C)O3)C(C)O2)c2c(cc3c(c2O)C(=O)c2c(O)ccc(O)c2C3=O)[C@H]1C(=O)OC (some centres undefined)
inactive: dose: 0.5 mg/kg/injection, schedule: Q01DX003 (ip), vehicle: saline 111 % of control | dose: 0.59 mg/kg/injection, schedule: Q01DX001 (ip), vehicle: saline 107 % of control | dose: 0.59 mg/kg/injection, schedule: Q01DX009 (ip), vehicle: saline 111 % of control | dose: 0.59 mg/kg/injection, schedule: Q04DX003 (ip), vehicle: saline 109 % of control | dose: 0.65 mg/kg/injection, schedule: Q01DX009 (ip), vehicle: water 122 % of control | dose: 0.75 mg/kg/injection, schedule: Q01DX009 (ip), vehicle: saline 121 % of control | dose: 0.89 mg/kg/injection, schedule: Q01DX001 (ip), vehicle: saline 107 % of control | dose: 0.89 mg/kg/injection, schedule: Q01DX009 (ip), vehicle: saline 113 % of control | dose: 0.89 mg/kg/injection, schedule: Q04DX003 (ip), vehicle: saline 105 % of control | dose: 1.0 mg/kg/injection, schedule: Q01DX003 (ip), vehicle: saline 113 % of control | dose: 1.0 mg/kg/injection, schedule: Q01DX009 (ip), vehicle: saline 119 % of control | dose: 1.04 mg/kg/injection, schedule: Q04DX003 (ip), vehicle: water 112 % of control | dose: 1.33 mg/kg/injection, schedule: Q01DX001 (ip), vehicle: saline 102 % of control | dose: 1.33 mg/kg/injection, schedule: Q01DX009 (ip), vehicle: saline 120 % of control | dose: 1.33 mg/kg/injection, schedule: Q04DX003 (ip), vehicle: saline 111 % of control | dose: 1.73 mg/kg/injection, schedule: Q04DX003 (ip), vehicle: water 112 % of control | dose: 2.0 mg/kg/injection, schedule: Q01DX001 (ip), vehicle: saline 109 % of control | dose: 2.0 mg/kg/injection, schedule: Q04DX003 (ip), vehicle: saline 107 % of control | dose: 2.59 mg/kg/injection, schedule: Q01DX001 (ip), vehicle: water 112 % of control | dose: 3.0 mg/kg/injection, schedule: Q01DX001 (ip), vehicle: saline 117 % of control | dose: 3.0 mg/kg/injection, schedule: Q01DX009 (ip), vehicle: saline 103 % of control | dose: 3.0 mg/kg/injection, schedule: Q01DX009 (ip), vehicle: water 96 % of control | dose: 12.0 mg/kg/injection, schedule: Q01DX001 (ip), vehicle: water 113 % of control | dose: 20.0 mg/kg/injection, schedule: Q01DX001 (ip), vehicle: water 98 % of control

CC1(c2ccco2)NC(=O)N(Cl)C1=O (centres undefined)
inactive: dose: 6.0 mg/kg/injection, schedule: Q04DX003 (ip), vehicle: saline 93 % of control | dose: 12.0 mg/kg/injection, schedule: Q04DX003 (ip), vehicle: saline 101 % of control | [1] 87 % of control | dose: 32.0 mg/kg/injection, schedule: Q04DX003 (ip), vehicle: saline 95 % of control | [2] 98 % of control | [3] 103 % of control | [4] 88 % of control | [5] 97 % of control and 103 % of control

CCC(=O)/C=C/C1C(C)=CCCC1(C)C (centres undefined)
inactive: [6] 86 % of control | [5] 100 % of control | [7] 90 % of control | [8] 102 % of control | [9] 100 % of control

CC1=C(Cl)C(=O)C(Cl)=C(C)C1=O
inactive: dose: 5.5 mg/kg/injection, schedule: Q01DX Z (ip), vehicle: methylcellulose (MC) 93 % of control | dose: 8.3 mg/kg/injection, schedule: Q01DX Z (ip), vehicle: methylcellulose (MC) 107 % of control | dose: 12.5 mg/kg/injection, schedule: Q01DX Z (ip), vehicle: methylcellulose (MC) 102 % of control

CC1(C)N=C(N)N=C(N)N1c1ccc(CNC(=O)Nc2ccc(S(=O)(=O)F)cc2)c(Cl)c1
inactive: dose: 45.0 mg/kg/injection, schedule: Q01DX009 (ip), vehicle: saline 111 % of control | dose: 67.0 mg/kg/injection, schedule: Q01DX009 (ip), vehicle: saline 120 % of control

NCCCCCc1ccccc1
inactive: [3] 109 % of control

NCCSCC(N)C(=O)O (centres undefined)
inactive: [10] 92 % of control | [11] 92 % of control | [12] 109 % of control

Cc1cc(=O)n2c3c(ccc([N+](=O)[O-])c13)OC2
inactive: [13] 104 % of control | [14] 99 % of control | [15] 95 % of control

CCOC(=O)C(Cc1ccc(Cl)cc1)(Cc1ccc(Cl)cc1)C(=O)OCC
inactive: [16] 100 % of control | [17] 92 % of control | [18] 98 % of control | [19] 92 % of control | [20] 102 % of control | [21] 94 % of control

CCCCC#CC(=O)OC(C)CC (centres undefined)
inactive: [10] 104 % of control | [11] 92 % of control | [12] 101 % of control

CNc1ccc(C(=O)OC)cc1
inactive: [13] 100 % of control | [14] 100 % of control | [15] 103 % of control

CC1(C)C(=NNc2ccccc2)C(C)(C)C1=NNc1ccccc1
inactive: dose: 25.0 mg/kg/injection, schedule: Q01DX009 (ip), vehicle: Klucel (hydroxypropylcellulose) (HPC) 93 % of control | [16] 93 % of control and 88 % of control | [17] 97 % of control | [19] 96 % of control | [21] 97 % of control

C(=C1/CC2CCC1C2)/c1ccccc1 (centres undefined)
inactive: [13] 98 % of control | [5] 93 % of control | [14] 103 % of control | [8] 93 % of control | [15] 101 % of control | [9] 89 % of control

C/C(=N/OC(=O)N(C)C)c1ccc(Cl)cc1Cl
inactive: dose: 100.0 mg/kg/injection, schedule: Q01DX001 (ip), vehicle: other 107 % of control

NCCCCC(NC(=O)OCc1ccccc1)C(=O)CCl (centres undefined)
inactive: dose: 10.0 mg/kg/injection, schedule: Q04DX002 (ip), vehicle: saline 109 % of control | dose: 20.0 mg/kg/injection, schedule: Q04DX002 (ip), vehicle: saline 95 % of control

C=C1C(=O)OC2C1CCC(C)C1(O)C=CC(=O)C21C (centres undefined)
inactive: dose: 6.25 mg/kg/injection, schedule: Q01DX009 (ip), vehicle: saline 98 % of control | dose: 12.5 mg/kg/injection, schedule: Q01DX009 (ip), vehicle: saline 98 % of control | [1] 101 % of control | [2] 103 % of control

O=C1C2C3CCC(C4OCCO4)(O3)C2C(=O)N1Cc1ccccc1 (centres undefined)
inactive: dose: 100.0 mg/kg/injection, schedule: Q04DX002 (ip), vehicle: Klucel (hydroxypropylcellulose) (HPC) 107 % of control | dose: 200.0 mg/kg/injection, schedule: Q04DX002 (ip), vehicle: Klucel (hydroxypropylcellulose) (HPC) 103 % of control | dose: 400.0 mg/kg/injection, schedule: Q04DX002 (ip), vehicle: Klucel (hydroxypropylcellulose) (HPC) 96 % of control

O=C1N/C(=N\OCc2ccccc2)CC(NOCc2ccccc2)N1C1OC(CO)C(O)C1O (centres undefined)
inactive: [5] 92 % of control | [8] 92 % of control

CCOC(=O)c1ccc(=O)[nH]c1
inactive: [16] 102 % of control | [4] 88 % of control | [17] 96 % of control | [5] 116 % of control and 100 % of control | [18] 100 % of control | dose: 200.0 mg/kg/injection, schedule: Q01DX009 (ip), vehicle: saline 96 % of control | [19] 98 % of control | [8] 101 % of control and 100 % of control | [20] 95 % of control | dose: 400.0 mg/kg/injection, schedule: Q01DX009 (ip), vehicle: saline 93 % of control | [21] 90 % of control | [9] 104 % of control and 96 % of control

CCOC(CCc1c(-c2ccc([N+](=O)[O-])cc2)nc(N)[nH]c1=O)OCC
inactive: [6] 95 % of control | [7] 111 % of control | dose: 400.0 mg/kg/injection, schedule: Q01DX009 (ip), vehicle: saline with Tween-80 95 % of control
